Tests used:
[1] = target: T1, GPR40 (Homo sapiens, UniProt O14842); test: Inositol phosphate accumulation assay (A9_GPR40 cells); type: cell-based; set-up: expressed in transfected cells; host or cells: CHO cells stably transfected with GPR40 and aequorin; conditions: inositol phosphate assay, A9_GPR40 cells, 1 hour; read-out: IP3 EC50
Procedure, shortened: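 A9 cells stably expressing GPR40 were labelled 16 h with 1 μCi/mL ^3H-inositol in inositol-free DMEM with dialysed FBS. Compounds in HBSS/10 mM LiCl with HSA were applied for 1 h at 37° C, then quenched with 20 mM formic acid. Accumulated [^3H] inositol phosphates were counted by SPA.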

[2] = target: T1, GPR40; test: Cell-based aequorin assay (CHO cells stably expressing GPR40 and aequorin); set-up: expressed in transfected cells; host or cells: CHO cells stably transfected with GPR40 and aequorin; conditions: activation of human GPR40, CHO cells, 0.01% HSA
Procedure, shortened: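 CHO cells stably co-expressing GPR40 and aequorin, loaded with coelenterazine (1 ug/mL, 2 h, room temperature) in H/HBSS with 20 mM Hepes and 0.01% fatty acid-free HSA. Serially diluted compounds added; luminescence recorded over 20 s. EC50 from dose-response of maximum relative light units.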

T1 sequence (O14842 whole entry): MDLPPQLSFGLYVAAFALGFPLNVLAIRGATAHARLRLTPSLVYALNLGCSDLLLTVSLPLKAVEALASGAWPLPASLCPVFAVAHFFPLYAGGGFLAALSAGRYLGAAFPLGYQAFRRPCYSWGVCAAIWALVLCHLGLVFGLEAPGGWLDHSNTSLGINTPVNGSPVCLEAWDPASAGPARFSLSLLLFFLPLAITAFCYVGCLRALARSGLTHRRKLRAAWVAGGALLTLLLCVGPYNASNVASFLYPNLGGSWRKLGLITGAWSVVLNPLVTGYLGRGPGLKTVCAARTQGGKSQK

Structure (SMILES) | EC50 [1] [nM] | EC50 [2] [nM]
COc1cc(-c2ccc(COc3cccc([C@@H](CC(=O)O)C4CC4)c3F)cc2[C@@H]2CCCC2(C)C)c(F)cn1 (single isomer, unassigned) [Example 83.5] | 10 to 100 | 100 to 1000
COc1ccc(F)c(-c2ccc(COc3cccc(C(CC(=O)O)C4CC4)c3F)cc2C(C)C(C)(C)C)c1 (single isomer, unassigned) [Example 83.6] | < 10 | 100 to 1000
COc1ccc(F)c(-c2ccc(COc3cccc(C(CC(=O)O)C4CC4)c3F)cc2C2CCCCC2(C)C)c1 (single isomer, unassigned) [Example 83.7] | < 10 | 100 to 1000
COc1ccc(F)c(-c2ccc(COc3cccc(C(CC(=O)O)C4CC4)c3F)cc2C(OC)C(C)(C)C)c1 (single isomer, unassigned) [Example 83.8] | < 10 | 100 to 1000
COc1ccc(F)c(-c2ccc(COc3cccc(C(CC(=O)O)C4CC4)c3F)cc2C(F)C(C)(C)C)c1 (single isomer, unassigned) [Example 83.9] | < 10 | 100 to 1000
CCO[C@H](c1cc(COc2cccc([C@@H](CC(=O)O)C3CC3)c2F)ccc1-c1ccccc1F)C(C)(C)C (single isomer, unassigned) [Example 83.10] | 10 to 100 | 100 to 1000
COCCO[C@H](c1cc(COc2cccc([C@@H](CC(=O)O)C3CC3)c2F)ccc1-c1ccccc1F)C(C)(C)C (single isomer, unassigned) [Example 83.11] | 10 to 100 | 100 to 1000
CC1(C)CCC=C1c1cc(COc2cccc([C@@H](CC(=O)O)C3CC3)c2F)ccc1-c1cc(C(F)F)ccc1F (single isomer, unassigned) [Example 83.12, (3S)-3-Cyclopropyl-3-(3-(((5′-(difluoromethyl)-2-(5,5-dimethyl-1-cyclopenten-1-yl)-2′-fluoro-1,1′-biphenyl-4-yl)methyl)oxy)-2-fluorophenyl)propanoic acid or (3R)-3-cyclopropyl-3-(3-(((5′-(difluoromethyl)-2-(5,5-dimethyl-1-cyclopenten-1-yl)-2′-fluoro-1,1′-biphenyl-4-yl)methyl)oxy)-2-fluorophenyl)propanoic acid] | 10 to 100 | 100 to 1000
COc1ccc(F)c(-c2ccc(COc3cccc(C(CC(=O)O)C4CC4)c3F)cc2C2=CCCC2(C)C)c1 (single isomer, unassigned) [Example 83.14, (3S)-3-Cyclopropyl-3-(3-(((2-(5,5-dimethyl-1-cyclopenten-1-yl)-2′-fluoro-5′-(methyloxy)-1,1′-biphenyl-4-yl)methyl)oxy)-2-fluorophenyl)propanoic acid or (3R)-3-cyclopropyl-3-(3-(((2-(5,5-dimethyl-1-cyclopenten-1-yl)-2′-fluoro-5′-(methyloxy)-1,1′-biphenyl-4-yl)methyl)oxy)-2-fluorophenyl)propanoic acid] | < 10 | 100 to 1000
COc1ccc(F)c(-c2ccc(COc3cccc(C(CC(=O)O)C4CC4)c3F)cc2CC(C)(C)C)c1 (single isomer, unassigned) [Example 83.15, (3S)-3-Cyclopropyl-3-(3-(((2-(2,2-dimethylpropyl)-2′-fluoro-5′-(methyloxy)-1,1′-biphenyl-4-yl)methyl)oxy)-2-fluorophenyl)propanoic acid or (3R)-3-cyclopropyl-3-(3-(((2-(2,2-dimethylpropyl)-2′-fluoro-5′-(methyloxy)-1,1′-biphenyl-4-yl)methyl)oxy)-2-fluorophenyl)propanoic acid] | < 10 | 100 to 1000
COc1ccc(F)c(-c2cc(F)c(COc3cccc(C(CC(=O)O)C4CC4)c3F)cc2C2=CCCC2(C)C)c1 (single isomer, unassigned) [Example 83.16, (3S)-3-Cyclopropyl-3-(3-(((2-(5,5-dimethyl-1-cyclopenten-1-yl)-2′,5-difluoro-5′-(methyloxy)-1,1′-biphenyl-4-yl)methyl)oxy)-2-fluorophenyl)propanoic acid or (3R)-3-cyclopropyl-3-(3-(((2-(5,5-dimethyl-1-cyclopenten-1-yl)-2′,5-difluoro-5′-(methyloxy)-1,1′-biphenyl-4-yl)methyl)oxy)-2-fluorophenyl)propanoic acid] | 10 to 100 | 100 to 1000
COc1ccc(F)c(-c2c(F)cc(COc3cccc([C@@H](CC(=O)O)C4CC4)c3F)cc2[C@H]2CCCC2(C)C)c1 (single isomer, unassigned) [Example 83.20] | < 10 | 100 to 1000
COc1cc(-c2ccc(COc3cccc([C@@H](CC(=O)O)C4CC4)c3F)cc2[C@@H](OC)C(C)(C)C)c(F)cn1 (single isomer, unassigned) [Example 83.21] | < 10 | 10 to 100
COc1ccc(F)c(-c2ccc(COc3cccc([C@@H](CC(=O)O)C4CC4)c3F)cc2[C@@H](OC)C2(C)CC2)c1 (single isomer, unassigned) [Example 83.22] | < 10 | 10 to 100
COc1ccc(F)c(-c2c(F)cc(COc3cccc([C@@H](CC(=O)O)C4CC4)c3F)cc2[C@@H]2CCCC2(C)C)c1 (single isomer, unassigned) [Example 83.24] | 10 to 100 | 100 to 1000
CC1(C)CCC[C@@H]1c1cc(COc2cccc([C@@H](CC(=O)O)C3CC3)c2F)ccc1-c1cc(F)ccc1F (single isomer, unassigned) [Example 83.25] | 10 to 100 | 100 to 1000
COc1ccc(F)c(-c2ccc(COc3cccc([C@@H](CC(=O)O)C4CC4)c3F)cc2[C@H](OC)C(C)(C)OC)c1 (single isomer, unassigned) [Example 83.26] | 10 to 100 | 100 to 1000
CO[C@H](c1cc(COc2cccc([C@@H](CC(=O)O)C3CC3)c2F)ccc1-c1cc(F)ccc1F)C(C)(C)C (single isomer, unassigned) [Example 83.27] | 10 to 100 | 100 to 1000
CCc1cccc(-c2ccc(COc3cccc([C@@H](CC(=O)O)C4CC4)c3F)cc2[C@H]2CCCC2(C)C)c1 (single isomer, unassigned) [Example 83.28] | 10 to 100 | 100 to 1000
COc1ccc(F)c(-c2ccc(COc3cccc(C(CC(=O)O)C4CC4)c3F)cc2CN2CCCCCC2)c1 (single isomer, unassigned) [Example 83.29, (3S)-3-(3-(((2-(1-Azepanylmethyl)-2′-fluoro-5′-(methyloxy)-1,1′-biphenyl-4-yl)methyl)oxy)-2-fluorophenyl)-3-cyclopropylpropanoic acid or (3R)-3-(3-(((2-(1-Azepanylmethyl)-2′-fluoro-5′-(methyloxy)-1,1′-biphenyl-4-yl)methyl)oxy)-2-fluorophenyl)-3-cyclopropylpropanoic acid] | 100 to 1000 | 1000 to 10000
COc1cc(-c2cc(F)c(COc3cccc([C@@H](CC(=O)O)C4CC4)c3F)cc2[C@H]2CCCC2(C)C)c(F)cn1 (single isomer, unassigned) [Example 83.34] | < 10 | 10 to 100
COc1ccc(F)c(-c2ccc(COc3cccc(C(CC(=O)O)CC4CC4)c3F)cc2C2CCCC2(C)C)c1 (single isomer, unassigned) [Example 84.1] | < 10 | 100 to 1000
COc1ccc(F)c(-c2ccc(COc3cccc(C(CC(=O)O)CC4CC4)c3F)cc2C(OC)C(C)(C)C)c1 (single isomer, unassigned) [Example 84.2] | < 10 | 100 to 1000
COc1ccc(F)c(-c2ccc(COc3cccc(C(CC(=O)O)CC4CC4)c3F)cc2C2CCCC2(C)C)c1 (single isomer, unassigned) [Example 84.3] | < 10 | 100 to 1000
COc1ccc(F)c(-c2cc(F)c(COc3cccc(C(CC(=O)O)CC4CC4)c3F)cc2C2CCCC2(C)C)c1 (single isomer, unassigned) [Example 84.4] | < 10 | 100 to 1000
COc1ccc(F)c(-c2ccc(COc3cccc(C(CC(=O)O)CC4CC4)c3F)cc2C2=CCCC2(C)C)c1 (single isomer, unassigned) [Example 84.5, (3R)-4-Cyclopropyl-3-(3-(((2-(5,5-dimethyl-1-cyclopenten-1-yl)-2′-fluoro-5′-(methyloxy)-1,1′-biphenyl-4-yl)methyl)oxy)-2-fluorophenyl)butanoic acid or (3S)-4-cyclopropyl-3-(3-(((2-(5,5-dimethyl-1-cyclopenten-1-yl)-2′-fluoro-5′-(methyloxy)-1,1′-biphenyl-4-yl)methyl)oxy)-2-fluorophenyl)butanoic acid] | 10 to 100 | 100 to 1000
COc1ccc(F)c(-c2ccc(COc3cccc(C(CC(=O)O)CC4CC4)c3F)cc2C2CCCCC2(C)C)c1 (single isomer, unassigned) [Example 84.6] | < 10 | 100 to 1000
COc1ccc(F)c(-c2ccc(COc3cccc(C(CC(=O)O)CC4CC4)c3F)cc2C(F)C(C)(C)C)c1 (single isomer, unassigned) [Example 84.7] | < 10 | 10 to 100
COc1cc(-c2ccc(COc3cccc(C(CC(=O)O)CC4CC4)c3F)cc2C2CCCC2(C)C)c(F)cn1 (single isomer, unassigned) [Example 84.8] | < 10 | 100 to 1000
COc1cc(-c2ccc(COc3cccc(C(CC(=O)O)CC4CC4)c3F)cc2C(OC)C(C)(C)C)c(F)cn1 (single isomer, unassigned) [Example 84.9] | < 10 | 100 to 1000
